Changes are numbered by the printed parent chain. Read-outs that look alike come from different tables or passages of the source.
Key:
Cathepsin G = target: T1, Cathepsin G (Homo sapiens, UniProt P08311); assay: Measurement of cathepsin G inhibitory activity (Suc-Ala-Ala-Pro-Phe-pNA); type: biochemical; conditions: cathepsin G from human purulent sputum; 60 minutes at 37° C.
T1 construct: the product of Elastin Products Company, Inc. derived from human purulent sputum was used; purchased Elastin Products Company, Inc; host or cells: human purulent sputum
T1 sequence (P08311 21-244): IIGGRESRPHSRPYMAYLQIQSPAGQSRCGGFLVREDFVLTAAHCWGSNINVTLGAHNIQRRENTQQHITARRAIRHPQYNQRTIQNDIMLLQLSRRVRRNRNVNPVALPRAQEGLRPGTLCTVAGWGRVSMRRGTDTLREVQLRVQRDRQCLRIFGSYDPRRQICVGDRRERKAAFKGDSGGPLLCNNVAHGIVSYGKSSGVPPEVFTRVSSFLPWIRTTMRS
Protocol: (§1) Measurement of Cathepsin G Inhibitory Activity and Chymotrypsin Inhibitory Activity
(§2) Each activity of cathepsin G or chymotrypsin was measured by determining the amount of free p-nitroaniline quantitatively using a synthetic substrate that is colorless and yields colored product upon hydrolysis, by means of a spectrophotometer. Chymotrypsin Type I-S derived from bovine pancreas was purchased from SIGMA. As cathepsin G, the product of Elastin Products Company, Inc. derived from human purulent sputum was used. Suc-Ala-Ala-Pro-Phe-pNA (manufactured by SIGMA) was used as the synthetic substrate. An inhibitory effect of a compound on each enzyme was determined by the following method.
(§3) Each test compound (5 μmol) was weighed in a test tube and dissolved into 2 mL of DMSO. […] Then, 200 μL of 1 mmol/L substrate solution was added to initiate en enzymatic reaction under a temperature of 37° C.
(§4) Based on each inhibitory ratio, IC50 value was calculated.

Chymotrypsin = target: T2, Chymotrypsin (Bos taurus, UniProt P00766); assay: Measurement of chymotrypsin inhibitory activity (Suc-Ala-Ala-Pro-Phe-pNA); type: biochemical; conditions: Chymotrypsin Type I-S from bovine pancreas; 30 minutes at 37° C.
T2 construct: Chymotrypsin Type I-S derived from bovine pancreas; purchased SIGMA Type I-S; host or cells: bovine pancreas
Protocol: as §1, §2, §3, §4

[1] = test system: rat cecum-scraped adhesion model; assay: Investigation in rat cecum-scraped adhesion model; type: in vivo; conditions: 2 mL PBS solution 10^−5 mol/L intraperitoneally; 1 week after operation; control 63.6%
Protocol: Investigation in Rat Cecum-scraped Adhesion Model
Six-week-old SD rats were subjected to midline incision at lower abdominal region under pentobarbital anesthetization (70 mg/kg, intramuscular injection), and the cecum was taken out of the incised part. Two parts of serous membrane of the cecum (about 2 cm^2 each) were rubbed with a cotton swab a hundred times until petechial hemorrhage occurs, followed by dropwise addition of 100 μL of ethanol. The cecum was again set in abdominal cavity, and then, 2 mL of a phosphate buffered saline (hereinafter, abbreviated as PBS, pH 7.4) solution of a test compound (Compound 24 or 70) was added dropwise intraperitoneally, and then the incised part was sutured. The concentration of each test compound solution was 10^−5 mol/L in a control group, PBS alone was added dropwise, followed by a similar treatment. Each group had 11 or 12 rats. After 1 week from the operation, the animals were slaughtered, the abdominal part was re-incised and an adhesion state of the cecum was evaluated according to adhesion scores using the adhesion intensity and adhesion area as indexes. The score values were determined according to the following 5-grade scores. In this connection, adhered region (%) was determined as percentage of total area of the adhered parts relative to the area of the rubbed regions. […]

Human chymase = target: T3, Human chymase (Homo sapiens, UniProt P23946); assay: Measurement of inhibitory activity of human chymase (Ang I substrate, His-Leu/OPT fluorescence)
T3 sequence (P23946 22-247): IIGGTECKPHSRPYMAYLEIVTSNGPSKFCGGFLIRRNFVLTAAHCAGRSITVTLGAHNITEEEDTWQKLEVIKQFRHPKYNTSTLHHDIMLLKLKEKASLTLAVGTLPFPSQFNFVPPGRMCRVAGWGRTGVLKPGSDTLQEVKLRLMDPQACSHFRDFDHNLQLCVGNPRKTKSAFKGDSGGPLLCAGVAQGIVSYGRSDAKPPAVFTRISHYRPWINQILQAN
Protocol: That is, the activity was measured by reacting free His-Leu formed together with Ang II with o-phthalaldehyde (hereinafter, abbreviated as OPT) to prepare a fluorescent derivative and determining the amount quantitatively by means of a fluorophotometer.
First, 3.6 μmol of each test compound was weighed in a test tube and was dissolved into 3 mL of DMSO. The DMSO solution was diluted 1000-fold with 20 mmol/L Tris-hydrochloric acid buffer solution (pH 8.0) containing 0.01% Triton X-100 and 0.5 mol/L potassium chloride to prepare 1.2×10^−6 mol/L solution, which was successively diluted with the buffer solution to prepare test sample solutions having concentrations of 1.2×10^−6 mol/L to 1.2×10^−9 mol/L. To 500 μL of the test sample solution of each concentration or buffer solution was added 50 μL of an enzyme solution, followed by 10 minutes of pre-incubation at 37° C. Then, 50 μL of 0.1 mmol/L Ang I solution was added to initiate a reaction. Human angiotensin I (manufactured by SIGMA) was employed as Ang I. The enzyme solution to be used for the reaction was adjusted so as to hydrolyze about 60% of substrate under the conditions, and the reaction wherein a buffer solution containing no enzyme was carried out as a blind test. […] Thereafter, the reaction mixture was centrifuged at 4° C. at 3,000 rpm for 10 minutes and 2 mL of 2 mol/L sodium hydroxide and 1 mL of methanol were added to 1 mL of the resulting supernatant. […] The measurement was repeated twice for each sample and blind test. The fluorescence intensity obtained by subtracting the average value at blind test from the average value thereof was determined as chymase activity.
In this regard, an enzymatic reaction using a buffer solution instead of the test sample solution was carried out as a control, and inhibitory ratio of chymase activity was determined as percentage by dividing the difference of subtraction of the activity at the addition of the test compound from the chymase activity at the control by the chymase activity at the control.

Simian chymase = target: T4, Simian chymase (Macaca mulatta, UniProt F6SAJ2); assay: Measurement of inhibitory activity of simian chymase (Ang I substrate, His-Leu/OPT fluorescence); type: biochemical, rhesus monkey
T4 sequence (F6SAJ2 22-247 limits assumed): T3 sequence (P23946 22-247) with F29S, E63K, D159Y, S201L, Q221K, A225G

[2] = test system: rat monocrotaline-induced pulmonary hypertension model; assay: Test in rat monocrotaline-induced pulmonary hypertension model; type: in vivo
Protocol: Test in Rat Monocrotaline-Induced Pulmonary Hypertension Model
Into 1.2 mL of 1 mol/L hydrochloric acid was dissolved 200 mg of monocrotaline, followed by addition of 5 mL of distilled water. The solution was neutralized with 0.5 mol/L sodium hydroxide, and further diluted with distilled water so as to be 10 mL (20 mg/mL). Moreover, a solution containing the solvent alone without monocrotaline was prepared as Solvent A. A test compound was suspended into olive oil (25 mg/mL). Furthermore, a solution containing no test compound but the solvent alone was prepared as Solvent B.
Monocrotaline (60 mg/kg-body weight) was administrated subcutaneously at the posterior region of neck of five 5-week-old SD male rats. From 3 days before monocrotaline administration to 20 days after the administration, a test compound was administered intraperitoneally twice a day at a dose of 50 mg/kg-body weight. On the next day of the final administration of the test compound, the rats were fixed supinely under anesthetization with intraperitoneal administration of sodium pentobarbital. And then blood pressure was measured with cannula inserted from left carotid artery and systolic pressure at right ventricle was measured with cannula inserted from right […] and introduced into right ventricle, via a pressure transducer by means of a pressure-strain gauge. After slaughter of the animals, the heart was removed and weight of right ventricle, weight of left ventricle and septum, and diameter and medial thickness of pulmonary artery having a diameter within a range of 50 to 150 μm were measured. Moreover, from these measured values, a weight ratio of right ventricle/(left ventricle+septum) and medial thickening ratio {(medial thickness/outer diameter of the blood vessel)×100} were determined. In this regard, a group wherein the rats to which monocrotaline was administered was treated with Solvent B alone in an amount of 2 mL/kg-body weight in the same administration schedule as above was named “Solvent-administered group”. In addition, a group wherein the rats to which Solvent A was administered in an amount of 3 mL/kg-body weight was treated with Solvent B in an amount of 2 mL/kg-body weight was named “Monocrotaline-untreated group”.

Stability in rat plasma = type: in vitro ADME; conditions: 10 μg/mL, 37° C., 60 minutes, HPLC
Protocol: Stability of the compounds of the invention in rat plasma was investigated.
Male SD rats (7-week-old) were anesthetized with ether under over-night fasting conditions and, after an abdominal part was incised, blood was collected from aorta abdominalis using a heparinized disposable plastic syringe. The blood was centrifuged under cooling to collect a supernatant plasma. The collected plasma was stored under freezing at −30° C. and was melted before use. After a test compound was dissolved in DMSO, the solution was added to 200 μL of the plasma so as to be 10 μg/mL, followed by incubation at 37° C. After 60 minutes, the mixture was acidified by adding 200 μL of 0.1 mol/L hydrochloric acid, and then extracted twice with 2 mL of ethyl acetate. The resulting organic layer was evaporated to dryness under a nitrogen gas flow and the residue was dissolved into 200 μL of acetonitrile to prepare a sample solution. On the other hand, the test compound was dissolved into 1% acetonitrile solution of DMSO so as to be 10 μg/mL as a control solution. The sample solution and control solution was investigated by high performance liquid chromatography (hereinafter, abbreviated as HPLC). Residual ratio (%) was determined as percentage by dividing the peak area of the sample solution by the peak area of the control solution.
Column: Waters Nova Pack C18 (inner diameter: 3.9 mm, length: 150 mm)
Mobile phase A: acetonitrile/water=10/90
Mobile phase B: acetonitrile/methanol=50/50
Eluent: Mobile phase A-mobile phase B (100/0 to 0/100, linear gradient, 50 minutes)
Amount of injection: 50 μL

hamster adhesion model = assay: Investigation in hamster adhesion model; type: in vivo; conditions: 1 mL saline solution 10^−4 mol/L intraperitoneally; 4 weeks after operation; 5-grade score 0-4; control 2.0; p<0.05
Protocol: Investigation in Hamster Adhesion Model
Five-week-old female hamster (10 hamsters per each group) was anesthetized by administering intraperitoneally pentobarbital sodium (50 mg/kg) and, after midline incision at abdominal region, the uterus was rubbed with a cotton swab. Thereafter, 1 mL of saline solution of a test compound (Compound 24: 10^−4 mol/L) was added dropwise intraperitoneally, and then the incised part was sutured. On the other hand, as a control, saline alone was added dropwise, followed by a similar treatment.
After 4 weeks from the operation, the animals were slaughtered, the abdominal part was exposed and adhesion was investigated. The adhesion was judged using the following 5-grade scoring system and the data were analyzed according to Mann-Whitney U test.
(§5) 1: Very weak adhesion (film-like adhesion easily releasable)
(§6) 2: Limited adhesion (strong adhesion difficult to release at only one point)
(§7) 3: Wide-range adhesion (strong adhesion difficult to release at several points)
(§8) 4: Very strong adhesion (very strong adhesion impossible to release)

[3] = test system: canine eye postoperative adhesion model; assay: Investigation in canine eye postoperative adhesion model; type: in vivo, beagle dog; conditions: sponge with saline solution 10^−4 mol/L for 3 minutes; 7 days after operation; 5-grade score 0-4; control 3.67; p<0.05
Protocol: Investigation in Canine Eye Postoperative Adhesion Model
A beagle dog was anesthetized and each conjunctiva of both eyes thereof was peeled in a size of 10 mm×5 mm under a stereomicroscope. At that time, Tenon was left at conjunctival side and was not left at scleral side. After a sponge immersed in a saline solution of a test compound (Compound 70) was placed at the incised part for 3 minutes, the incised part was put in one stitch with 10-0 nylon thread. The concentration of the test compound solution was 10^−4 mol/L and a saline was used in a control group (6 dogs per each group).
After 7 days from the operation, the animals were slaughtered, the eyeballs were taken out and adhesion was investigated. After the thread used at the stitching in the model preparation was cut, evaluation was carried out by pulling the conjunctiva part with tweezers and scoring the adhesion state. The score values were determined according to the following 5-grade scores, and Mann-Whitney U test was used for analyzing the data.
as §5, §6, §7, §8

[4] = monocrotaline-treated SD male rats, 50 mg/kg intraperitoneally twice a day, 3 days before to 20 days after monocrotaline
[5] = chymase from heart of rhesus monkey, 120 minutes at 37° C., read-out: Simian chymase IC50 value

Row | SMILES | IC50 (Cathepsin G) | IC50 (Chymotrypsin) | total percentage of scores 3 and 4 showing severe adhesions [1] | IC50 (Human chymase; read-out: Human cymase IC50 value, human chymase from silkworms infected with baculovirus, 120 minutes at 37° C.) | IC50 (Simian chymase) | Medial thickening ratio ([2]; (medial thickness/outer diameter of the blood vessel)×100, pulmonary artery 50 to 150 μm, 50 mg/kg intraperitoneally twice a day) | thickening of medial muscular layer (increase of medial thickening ratio) ([2]; monocrotaline-induced pulmonary hypertension, result in words) | Weight ratio of right ventricle/(left ventricle + septum) ([2]; monocrotaline-treated SD male rats, 50 mg/kg intraperitoneally twice a day) | Average blood pressure [2, 4] | Systolic pressure at right ventricle [2, 4] | Weight of right ventricle [2, 4] | melting point | Residual ratio in rat plasma (Stability in rat plasma) | IC50 (Human chymase) | average adhesion score (hamster adhesion model) | IC50 (Simian chymase; [5]) | average adhesion score [3]
1 | COC(=O)c1ccc(NS(=O)(=O)c2sc3ccc(Cl)cc3c2C)c(OC)c1 [Compound 7, Methyl 4-(5-chloro-3-methylbenzo[b]thiophene-2-sulfonylamino)-3-methoxybenzoate] | > 1000 nM | > 1000 nM | 33.3% | – | – | – | – | – | – | – | – | – | – | – | – | – | –
2 | COC(=O)c1ccc(NS(=O)(=O)c2sc3ccc(F)cc3c2C)c(S(C)(=O)=O)c1 [Compound 17, methyl 4-(5-fluoro-3-methylbenzo[b]thiophene-2-sulfonylamino)-3-methanesulfonylbenzoate] | > 10000 nM | > 10000 nM | – | 56 nM | 9 nM | 10.55 ± 1.80 | suppressed | 0.39 ± 0.04 | 111 ± 19 mmHg | 57 ± 11 | 233 ± 24 mg | – | – | – | – | – | –
3 | Cc1c(S(=O)(=O)Nc2ccc(-c3nc(C(=O)O)co3)cc2S(C)(=O)=O)sc2ccc(F)cc12 [Compound 24, 2-[4-(5-fluoro-3-methylbenzo[b]thiophene-2-sulfonylamino)-3-methanesulfonylphenyl]oxazole-4-carboxylic acid] | > 10000 nM | > 10000 nM | 41.7% | – | – | – | – | – | – | – | – | 207 to 208 °C | 100% | 37 nM | 0.9 | 2 nM | –
4 | Cc1c(S(=O)(=O)Nc2ccc(-c3nc(C(=O)O)cs3)cc2S(C)(=O)=O)sc2ccc(F)cc12 [Compound 70, 2-[4-(5-fluoro-3-methylbenzo[b]thiophene-2-sulfonylamino)-3-methanesulfonylphenyl]thiazole-4-carboxylic Acid] | > 10000 nM | > 10000 nM | – | – | – | – | – | – | – | – | – | – | – | 7 nM | – | 0.4 nM | 2.67

Source: patent US7071220B2, “N-substituted benzothiophenesulfonamide derivatives” (Toa Eiyo Ltd., priority 2000, dated 2006)
